Results: patent publication US6482858B1, “(−)-hydroxycitric acid for wound healing and immunomodulation” (priority 2001, dated 2002)
Read-outs that look alike come from different tables or passages of the source.

Key:
[1] = Single-subject trial of potassium HCA: skin health and psoriasis; assay type: in vivo, human; details: middle-aged subject
Description: The results in the above examples led us to question whether HCA might be useful as a supplement for individuals not in need of weight loss and not under obvious stress. To this end, a middle-aged subject ingested approximately 2 to 3 grams HCA in the form of the potassium salt twice daily for 10 days. They were instructed to report on effects other than those which were to be expected, i.e., effects other than appetite control. Two quite interesting findings typical of re-regulation of corticoid metabolism emerged from this crude trial. […] These effects were similar in kind, although greater in degree, than this subject had experienced in the past when experimenting with relatively large dosages of melatonin (5 to 20 mg taken at bedtime) and, when much younger, amino acid supplementation designed to improve growth hormone release. We interpreted this finding as indicative of the normalization of melatonin and growth hormone metabolism. None of the side effects typical of elevated melatonin supplementation, such as morning grogginess or nasal congestion, were noted. Second, this subject noticed an improvement in their psoriasis during the last few days of the trial. In this subject's past experience, supplements which tended to improve their overall immune response and skin tone—including melatonin—at the same time tended to worsen their psoriasis. Therefore, this subject's experience with HCA was in line with the reports in the published literature regarding the condition as representative of corticoid and circadian dysregulation.

[2] = target: cortisol receptors (Homo sapiens, UniProt P04150); details: cited from earlier work
[3] = cited from earlier work; for % Body H2O / % Ash, wet / % Fat, wet / % Protein, wet: mean; for % Body H2O: 52.6 mmol/kg diet, six weeks; for % Ash, wet / % Fat, wet / % Protein, wet: wet weight

cortisol receptors, sequence (P04150 whole entry): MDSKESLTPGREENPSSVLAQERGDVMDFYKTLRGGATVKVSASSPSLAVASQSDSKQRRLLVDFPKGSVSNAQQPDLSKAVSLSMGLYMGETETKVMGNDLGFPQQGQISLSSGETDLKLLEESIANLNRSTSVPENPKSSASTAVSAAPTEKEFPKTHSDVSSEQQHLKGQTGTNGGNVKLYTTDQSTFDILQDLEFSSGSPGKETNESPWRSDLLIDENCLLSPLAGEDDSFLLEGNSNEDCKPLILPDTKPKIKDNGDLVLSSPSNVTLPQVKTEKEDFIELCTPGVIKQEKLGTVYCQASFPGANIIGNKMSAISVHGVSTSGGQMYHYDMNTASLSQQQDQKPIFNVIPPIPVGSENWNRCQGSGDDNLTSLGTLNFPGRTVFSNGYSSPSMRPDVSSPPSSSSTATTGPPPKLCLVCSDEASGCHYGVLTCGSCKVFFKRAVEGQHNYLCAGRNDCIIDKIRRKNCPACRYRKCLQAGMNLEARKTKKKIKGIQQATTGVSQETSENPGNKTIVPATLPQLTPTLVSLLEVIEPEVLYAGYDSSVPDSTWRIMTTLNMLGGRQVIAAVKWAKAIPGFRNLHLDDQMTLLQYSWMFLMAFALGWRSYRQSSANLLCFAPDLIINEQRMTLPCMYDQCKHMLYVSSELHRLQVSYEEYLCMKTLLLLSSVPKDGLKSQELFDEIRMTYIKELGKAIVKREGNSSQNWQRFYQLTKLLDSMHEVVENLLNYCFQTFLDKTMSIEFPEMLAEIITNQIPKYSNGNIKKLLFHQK

O=C(O)CC(O)(C(=O)O)C(O)C(=O)O (single isomer, unassigned; (-)) [HCA, (−)-hydroxycitric acid]
Side effects typical of elevated melatonin supplementation (morning grogginess, nasal congestion) ([1]; 10 days): None
Psoriasis ([1]; approximately 2 to 3 grams twice daily for 10 days, last few days of the trial): improvement
Skin tone ([1]; approximately 2 to 3 grams twice daily, before the first week had passed): improved markedly

CC#C[C@]1(O)CC[C@H]2[C@@H]3CCC4=CC(=O)CCC4=C3[C@@H](c3ccc(N(C)C)cc3)C[C@@]21C [RU 486, mifepristone]
Plasma ACTH and cortisol ([2]; 10 mg/kg.day oral, 7-14 days): marked compensatory elevations
Subjects who developed generalized exanthem (skin rash) ([2]; 10 mg/kg.day oral, after 9 days of treatment): 8 of the 11
Enhancement of immune function ([2]; high doses, normal volunteers, 7-14 days): does not result in measurable enhancement of immune function

O=C([O-])CC(O)(C(=O)[O-])C(O)C(=O)[O-].[Na+].[Na+].[Na+] (stereo not drawn) [Tri-NaHCA, trisodium (−)-hydroxycitrate]
% Body H2O ([3]; Zucker lean): 64.3%
% Ash, wet ([3]; Zucker lean): 4.9/NA %
% Fat, wet ([3]; Zucker lean): 8.05/NA %
% Protein, wet ([3]; Zucker lean): 22.0/NA %
% Body H2O ([3]; Zucker obese): 25.8%
% Ash, wet ([3]; Zucker obese): 2.6/NA %
% Fat, wet ([3]; Zucker obese): 59.8/NA %
% Protein, wet ([3]; Zucker obese): 11.8/NA %
Carcass protein and ash/mineral content compared with control ([3]; lean and obese animals): increased
